Legend:
[1] = Metabolic stability; type: in vitro ADME
[2] = target: T1, sEH (Homo sapiens, UniProt P34913); experiment: Inhibition of sEH (standard assays, stated in text); type: biochemical
T1 sequence (P34913 1-555): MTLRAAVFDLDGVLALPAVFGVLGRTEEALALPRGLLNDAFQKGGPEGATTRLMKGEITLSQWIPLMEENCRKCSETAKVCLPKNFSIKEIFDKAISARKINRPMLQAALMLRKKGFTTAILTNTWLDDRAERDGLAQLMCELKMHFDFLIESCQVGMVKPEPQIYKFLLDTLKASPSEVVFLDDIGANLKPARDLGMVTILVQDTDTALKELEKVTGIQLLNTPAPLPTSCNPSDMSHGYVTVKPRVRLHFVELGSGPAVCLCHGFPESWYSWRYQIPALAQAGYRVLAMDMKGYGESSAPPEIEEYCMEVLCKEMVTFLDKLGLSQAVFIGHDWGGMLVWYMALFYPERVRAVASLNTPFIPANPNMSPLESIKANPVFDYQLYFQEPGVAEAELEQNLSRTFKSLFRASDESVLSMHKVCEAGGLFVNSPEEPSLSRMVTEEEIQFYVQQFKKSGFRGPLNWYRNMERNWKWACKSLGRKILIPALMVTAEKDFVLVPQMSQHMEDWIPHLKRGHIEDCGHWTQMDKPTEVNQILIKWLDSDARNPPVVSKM
From the text: Derivatives of urea are transition state mimetics that form a preferred group of sEH inhibitors. […] Any particular urea derivative or other compound can be easily tested for its ability to inhibit sEH by standard assays, such as those discussed herein. The production and testing of urea and carbamate derivatives as sEH inhibitors is set forth in detail in, for example, Morisseau et al., Proc Natl Acad Sci (USA) 96:8849-8854 (1999).
Any of a number of standard assays for determining epoxide hydrolase activity can be used to determine inhibition of sEH. […] Suitable in vitro assays are described in Zeldin et al., J. Biol. Chem. 268:6402-6407 (1993). Suitable in vivo assays are described in Zeldin et al., Arch Biochem Biophys 330:87-96 (1996).

[3] = system: New Zealand white rabbits; experiment: Intraocular pressure in rabbits after treatment of the eye (tonometer); type: in vivo; details: one rabbit per treatment, 50 μL/eye; for Change in intraocular pressure (IOP treated eye minus control eye) after topical instillation: 100 μg/mL in artificial tears with 1% DMSO; for Time after treatment at which IOP decline appeared: 100 μg/mL, topical
Description: Female New Zealand white rabbits (2.7-3.0 kg) were obtained from Harlan (Indianapolis, Ind.). On test day, rabbits were lightly tranquilized with torbugesic/acepromazine at 0.04 mg/kg, administered subcutaneously. Ten to twenty minutes after administration of the tranquilizer, a drop of proparacaine hydrochloride (0.5% ophthalmic solution) was instilled in each eye to numb the eye prior to taking the intraocular pressure measurement. After 2-5 min, intraocular pressure in each eye (right and left) was measured using a tonometer (Tono-Pen®, Mentor Opthalmics, Santa Barbara, Calif.). Measurements were taken every 3-5 minutes to obtain baseline pressure. Then various treatments were applied (right eye) and after 3-5 minutes measurements were again taken every 3-5 minutes. Data are expressed as the change in intraocular pressure (“IOP”) in the treated eye compared to the control eye (IOP in treated eye—IOP in control eye). […] DMSO is also known to aid penetration through the skin. For a treatment to be effective, it must penetrate the cornea. Later treatments utilized subconjunctival injection. This delivers the compound below the conjunctiva where it is rapidly absorbed, avoiding issues of absorption.
Treatments: Each rabbit was administered one of the following treatments: (1). Epoxyeicosatrienoic acids (EETs) only, 100 μg/mL carboxylmethyl cellulose artificial tears containing 1% dimethyl sulfoxide (DMSO), 50 μL/eye (2). […] EETs only, 10 μg/mL carboxylmethyl cellulose artificial tears containing 1% DMSO, 0.1 cc/eye administered subconjunctivally (4).
Compounds used for the topical treatment of eye diseases become clinically useful only if they can penetrate the intact epithelium of the cornea and conjunctiva and achieve clinically useful concentrations within the eye. Thus for these trials we used both instillation by drops and by subconjunctival injections.

[4] = Stability of EETs on storage, handling and administration; type: physicochemical; details: if not exposed to acidic conditions or to sEH

**Q.** Which Metabolic stability [1] does the source give for `CCCCCCCCCCCCNC(=O)NC12CC3CC(CC(C3)C1)C2` [ADU, N-Adamantyl-N′-dodecyl urea] here?
**A.** metabolically stable

**Q.** What about the “Activity as an inhibitor of sEH” value [2] of the same molecule?
**A.** particularly high activity

**Q.** With `O=C(O)CCCCCCCCCCCNC(=O)NC12CC3CC(CC(C3)C1)C2` [AUDA, 12-(3-Adamantan-1-yl-ureido)dodecanoic acid] as the molecule, how does the “Change in intraocular pressure (IOP treated eye minus control eye) after topical instillation” value [3] read?
**A.** distinct decline in pressure

**Q.** What about the “Time after treatment at which IOP decline appeared” value [3] of the same molecule?
**A.** about 20 minutes

**Q.** With cis-Epoxyeicosatrienoic acids [EETs] as the molecule, how does the “Change in intraocular pressure (IOP treated eye minus control eye) after topical instillation” value [3] read?
**A.** definite declining trend

**Q.** And the “Time after treatment at which IOP decline appeared” value [3]?
**A.** about 45 minutes

**Q.** What about the Stability [4] of the same molecule?
**A.** stable

— patent US20080279912A1, “Use of Cis-Epoxyeicosatrienoic Acids And Inhibitors of Soluble Epoxide Hydrolase to Alleviate Eye Disorders” (Regents of the University of California Office of …, priority 2005, published 2008)
